Measurements taken from paper PMC8041284, “Tunable Methacrylamides for Covalent Ligand Directed Release Chemistry” (Journal of the American Chemical Society, 2021).
Read-outs that look alike come from different tables or passages of the source.

Biological target: BTK (Homo sapiens, UniProt Q06187)
Test: biochemical
[1] = read-out: BTK inhibition (%), 0.75 uM BTK, […] probe 3l, 15 min preincubation

Chain of BTK (Q06187 402-655 limits assumed): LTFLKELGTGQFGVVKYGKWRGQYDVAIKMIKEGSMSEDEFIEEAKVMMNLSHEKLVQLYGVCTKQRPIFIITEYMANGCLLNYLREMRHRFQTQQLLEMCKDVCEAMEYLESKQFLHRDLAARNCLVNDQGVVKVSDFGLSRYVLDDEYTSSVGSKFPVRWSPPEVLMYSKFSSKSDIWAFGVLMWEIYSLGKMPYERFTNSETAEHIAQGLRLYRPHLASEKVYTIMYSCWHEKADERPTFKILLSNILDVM

Compound: CC(C)=CCc1cc2c(cc1O)oc(=O)c1c3ccc(O)cc3oc21 [PCM-0216176]
- inhibition at 10 µM [1]: 17.2%

Compound: CCOC(=O)n1ccn(C)c1=S [PCM-0086034]
- inhibition at 10 µM [1]: -17.1%

Compound: O=S(=O)(c1cccc2cnccc12)N1CCCNCC1 [PCM-0090675]
- inhibition at 10 µM [1]: -17.9%

Compound: C[C@H]1O[C@@H](O[C@H]2CC[C@@]3(C)[C@@H](CC[C@]4(C)[C@@H]3C=CC3=C5CC(C)(C)CC[C@]5(CO)[C@H](O)C[C@]34C)[C@]2(C)CO)[C@H](O)[C@@H](O[C@@H]2O[C@H](CO)[C@@H](O)[C@H](O)[C@H]2O)[C@H]1O [PCM-0216536]
- inhibition at 10 µM [1]: 5.4%

Compound: C=CCc1cc(OC)c(OC)c(OC)c1 [PCM-0215912]
- inhibition at 10 µM [1]: 3.1%

Compound: C=CC(=O)Nc1cccc(Oc2nc(Nc3ccc(N4CCN(C)CC4)cc3)ncc2Cl)c1 [PCM-0095023]
- inhibition at 10 µM [1]: 91.7%

Compound: CCCCCCCCOC(=O)c1cc(O)c(O)c(O)c1 [PCM-0216629]
- inhibition at 10 µM [1]: 3.9%

Compound: O=C(O)COc1nn(Cc2ccccc2)c2ccccc12 [PCM-0216238]
- inhibition at 10 µM [1]: -3.1%

Compound: Clc1ccccc1CN1CCc2sccc2C1 [PCM-0085848]
- inhibition at 10 µM [1]: -2.6%

Compound: C=CCCCCCCCCC(=O)O[C@H]1CC[C@H]2[C@@H]3CCC4=CC(=O)C=C[C@]4(C)[C@H]3CC[C@]12C [PCM-0215894]
- inhibition at 10 µM (read-out: BTK inhibition (%)): 10.9%

Compound: CCn1c(=O)c(-c2ccc(-c3cncs3)cc2Cl)cc2cnc(Nc3ccc(N4CCN(C)CC4)cc3)nc21 [PCM-0215453]
- inhibition at 10 µM [1]: 18.6%

Compound: CS(=O)(=O)c1ccc(-c2cnc(N)c(C(=O)Nc3ccccc3)n2)cc1 [PCM-0095599]
- inhibition at 10 µM [1]: 10.3%

Compound: C/C1=C\CC[C@H](C)C(=O)C[C@@H](C(C)C)C(=O)C1 [PCM-0216439]
- inhibition at 10 µM [1]: -3.9%

Compound: CC(NC(C)(C)C)C(=O)c1cccc(Cl)c1 (stereo not shown) [PCM-0064429]
- inhibition at 10 µM [1]: -3.9%

Compound: C=C(c1ccc(C(=O)O)cc1)c1cc2c(cc1C)C(C)(C)CCC2(C)C [PCM-0095260]
- inhibition at 10 µM [1]: 14%

Compound: Cc1ccc(Cl)cc1N(CC(=O)Nc1c(F)cccc1F)S(C)(=O)=O [PCM-0215291]
- inhibition at 10 µM [1]: 0.8%

Compound: N#Cc1ccc2ncnc(NCCc3ccccc3)c2c1 [PCM-0215834]
- inhibition at 10 µM [1]: -30.3%

Compound: CNC[C@H](O)c1ccc(O)c(O)c1 [PCM-0065121]
- inhibition at 10 µM [1]: -9.3%

Compound: Nc1nnc(-c2cccc(Cl)c2Cl)c(N)n1 [PCM-0065504]
- inhibition at 10 µM [1]: 16.3%

Compound: COc1ccc(CCC(=O)Nc2nc3ccc(Cl)cc3s2)cc1OC [PCM-0095584]
- inhibition at 10 µM [1]: -0.8%

Compound: O=C1C[C@@H](c2ccc(O)cc2)Oc2cc(O)cc(O)c21 [PCM-0094816]
- inhibition at 10 µM [1]: 3.9%

Compound: Cc1[nH]nc2ccc(-c3cncc(OC[C@@H](N)Cc4ccccc4)c3)cc12 [PCM-0095333]
- inhibition at 10 µM [1]: -17.2%

Compound: CNS(=O)(=O)CCc1ccc2[nH]cc(C3CCN(C)CC3)c2c1 [PCM-0065268]
- inhibition at 10 µM [1]: -14.8%

Compound: CCCCC(=O)OCC(=O)[C@H]1[C@H](C)C[C@H]2[C@@H]3C[C@H](F)C4=CC(=O)C=C[C@]4(C)[C@@]3(F)[C@@H](O)C[C@@]21C [PCM-0216248]
- inhibition at 10 µM [1]: 2.3%

Compound: C=CC(=O)Nc1cc2c(Nc3ccc(F)c(Cl)c3)ncnc2cc1OCCCN1CCOCC1 [PCM-0094917]
- inhibition at 10 µM [1]: 93.6%

Compound: COc1cc2nccc(Oc3ccc(NC(=O)c4cn(C(C)C)c(=O)n(-c5ccc(F)cc5)c4=O)cc3F)c2cc1OC [PCM-0215831]
- inhibition at 10 µM [1]: 12.4%

Compound: C=C1C(=O)O[C@@H]2/C=C(\C)CC/C=C(\C)CC[C@@H]12 [PCM-0214614]
- inhibition at 10 µM [1]: 46.7%

Compound: O=C(O)/C=C/C(=O)O [PCM-0064603]
- inhibition at 10 µM [1]: -7.7%

Compound: Oc1ccc(Nc2nc(-c3ccc(Cl)cc3)cs2)cc1 [PCM-0095692]
- inhibition at 10 µM [1]: 84.8%

Compound: COC(=O)Nc1nc2ccc(Sc3ccccc3)cc2[nH]1 [PCM-0085863]
- inhibition at 10 µM [1]: -7%

Compound: CC(C)c1c2cc(-c3ccnc(NC4CCC(NC5CCOCC5)CC4)n3)ccc2nn1C (stereo not shown) [PCM-0215782]
- inhibition at 10 µM [1]: 3.4%

Compound: O=c1oc2cc(O)ccc2c2ccc(O)cc12 [PCM-0216079]
- inhibition at 10 µM [1]: 32.4%

Compound: Cc1cccc(Oc2cnc(=O)[nH]c2)c1 [PCM-0215674]
- inhibition at 10 µM [1]: -17%

Compound: COc1ccnc2[nH]cc(C(=O)C(=O)N3CCN(C(=O)c4ccccc4)C[C@H]3C)c12 [PCM-0095512]
- inhibition at 10 µM [1]: 0.7%
